The target of assay [1] is T1, D(3) dopamine receptor (Homo sapiens, UniProt P35462). Put plainly: Displacement of [3H]spiperone form human cloned dopamine D3 receptor expressed in CHO cells. The assay is classed as cell-based. In general terms: Displacement assays read how much labelled ligand stays bound in the presence of the test substance.
For another assay, the target named is D(2) dopamine receptor (Homo sapiens, UniProt P14416). Description: Displacement of [3H]spiperone form human cloned dopamine D2L receptor expressed in CHO cells. In kind it is cell-based.
Sequence of D(2) dopamine receptor (P14416 whole entry): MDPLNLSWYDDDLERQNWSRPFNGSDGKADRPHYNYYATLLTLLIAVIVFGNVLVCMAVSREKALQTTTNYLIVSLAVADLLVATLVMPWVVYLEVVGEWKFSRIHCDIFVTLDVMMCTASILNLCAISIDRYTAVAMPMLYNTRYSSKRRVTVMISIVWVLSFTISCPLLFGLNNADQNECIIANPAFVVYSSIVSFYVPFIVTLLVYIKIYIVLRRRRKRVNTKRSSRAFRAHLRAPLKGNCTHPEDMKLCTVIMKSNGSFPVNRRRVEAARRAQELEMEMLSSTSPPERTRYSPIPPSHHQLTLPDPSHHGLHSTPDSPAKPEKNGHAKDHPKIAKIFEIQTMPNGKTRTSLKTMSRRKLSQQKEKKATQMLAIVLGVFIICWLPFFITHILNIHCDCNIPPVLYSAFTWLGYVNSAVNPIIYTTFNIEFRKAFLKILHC
For another assay, the species on record is Homo sapiens. Put plainly: Selectivity ratio of Ki for human dopamine D2 receptor to Ki for human dopamine D3 receptor.
In assay [2] the target is T1, D(3) dopamine receptor. Put plainly: Activation of human dopamine D3 receptor expressed in CHO cells assessed as [35S]GTPgammaS binding by scintillation proximity assay. The assay is classed as functional, cell-based.

Results on 20 compounds are retold here after ChEMBL document CHEMBL1154395, “Modulations of the amide function of the preferential dopamine D3 agonist (R,R)-S32504: improvements of affinity and selectivity for D3 versus D2 receptors” (Bioorg Med Chem Lett, 2009).

Molecules are shown by their SMILES.

T1 sequence (P35462 whole entry): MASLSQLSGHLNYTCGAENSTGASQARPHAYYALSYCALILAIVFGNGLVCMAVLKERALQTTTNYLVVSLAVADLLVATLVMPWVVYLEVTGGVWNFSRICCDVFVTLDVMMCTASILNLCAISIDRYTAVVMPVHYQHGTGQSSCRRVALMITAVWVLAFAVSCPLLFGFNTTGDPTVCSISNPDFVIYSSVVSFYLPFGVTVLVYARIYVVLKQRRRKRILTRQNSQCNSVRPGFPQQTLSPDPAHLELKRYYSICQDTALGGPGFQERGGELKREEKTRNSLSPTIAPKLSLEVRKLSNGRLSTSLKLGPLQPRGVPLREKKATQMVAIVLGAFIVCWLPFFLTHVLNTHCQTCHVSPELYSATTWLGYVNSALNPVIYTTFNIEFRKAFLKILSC

For `CCCN1CCO[C@@H]2c3cc4c(cc3CC[C@H]21)CN(C)C4=O`, the figures for the Ki on D(3) dopamine receptor [1] and on D(2) dopamine receptor were 2190 nM and more than 10000 nM, respectively.

On to `CCCN1CCO[C@H]2c3cc(C(N)=O)ccc3CC[C@@H]21`, for which the Ki (as a rule, a dissociation constant, usually derived from enzyme kinetics or from competition with a known ligand) at D(3) dopamine receptor [1] was 2450 nM; at D(2) dopamine receptor it was more than 10000 nM.

Compound `CCCN1CCO[C@@H]2c3cc4c(=O)[nH]ccc4cc3CC[C@H]21` showed a Ki on D(2) dopamine receptor of 1200 nM.

As to `CCCCNC(=O)c1ccc2c(c1)[C@H]1OCCN(CCC)[C@@H]1CC2`, the Ki was more than 10000 nM at D(3) dopamine receptor [1] and 4570 nM on D(2) dopamine receptor.

For the compound `CCCN1CCO[C@@H]2c3cc(C(C)=O)ccc3CC[C@H]21`, the figures for the Ki at D(3) dopamine receptor [1] and at D(2) dopamine receptor were 95.5 nM and 3090 nM, respectively. Further, the Ratio Ki in the assay listed under Homo sapiens came to 32.

Take `CCCN1CCO[C@@H]2c3cc4c(cc3CC[C@H]21)CCOC4=O`: the Ki at D(3) dopamine receptor [1] is 120 nM; on D(2) dopamine receptor, 1480 nM. In addition, in the assay filed under Homo sapiens, the Ratio Ki amounted to 12.5.

For the compound `CCCN1CCOC2c3cc(C(N)=O)ccc3CCC21` (racemic), the Ki at D(3) dopamine receptor [1] was 19.5 nM; on D(2) dopamine receptor, 759 nM. The Ratio Ki in the assay filed under Homo sapiens was 40.

Regarding `CCCN1CCO[C@@H]2c3cc4c(cc3CC[C@H]21)CCNC4=O`, affinity at D(2) dopamine receptor was put at a Ki of 776 nM.

Take `CCCN1CCO[C@@H]2c3cc(C#N)ccc3CC[C@H]21`: the Ki on D(3) dopamine receptor [1] was 39.8 nM; on D(2) dopamine receptor it was 794 nM. Moreover, in the assay listed under Homo sapiens, the Ratio Ki was found to be 20.

As to `CCCN1CCO[C@@H]2c3cc4c(cc3CC[C@H]21)COC4=O`, the Ki at D(2) dopamine receptor was 2040 nM.

On to `CCCN1CCO[C@@H]2c3cc(C(=O)OCC)ccc3CC[C@H]21`, for which the affinity at D(3) dopamine receptor [1], expressed as Ki, was 2630 nM.

On to `CCCN1CCO[C@@H]2c3cc(C(=O)NCc4ccc(OC)cc4)ccc3CC[C@H]21`, for which the Ki on D(3) dopamine receptor [1] was more than 10000 nM; at D(2) dopamine receptor, 3390 nM.

Consider `CCCN1CCO[C@@H]2c3cc(C(N)=O)ccc3CC[C@H]21`, for which the Ki on D(3) dopamine receptor [1] is 14.8 nM; at D(2) dopamine receptor, 1200 nM. Besides, in the assay listed under Homo sapiens, the Ratio Ki was 80. In addition, on D(3) dopamine receptor [2], the EC50 (usually the concentration needed to bring the measured effect to its halfway point) is 2.29 nM.

At D(2) dopamine receptor, `CCCN(CCC)CCc1cccc2c1CC(=O)N2` [ROPINIROLE] showed a Ki of 692 nM.

For the compound `CCCN1CCO[C@@H]2c3cc(-c4nnn[nH]4)ccc3CC[C@H]21`, the Ki at D(3) dopamine receptor [1] and on D(2) dopamine receptor was more than 10000 nM in each case.

Consider `CCCN1CCO[C@@H]2c3cc(C(=O)O)ccc3CC[C@H]21`, for which the Ki at D(3) dopamine receptor [1] was 3310 nM; at D(2) dopamine receptor, more than 10000 nM.

In the case of `CCCN1CCO[C@@H]2c3cc(C(=O)NC)ccc3CC[C@H]21`, the Ki on D(3) dopamine receptor [1] is more than 10000 nM; at D(2) dopamine receptor, 7940 nM.

Take `CCCN1CCO[C@@H]2c3cc(C(=O)N(C)C)ccc3CC[C@H]21`: the Ki was more than 10000 nM at D(3) dopamine receptor [1] and 1860 nM on D(2) dopamine receptor.

As to `CCCN1CCO[C@@H]2c3cc(C(=O)OC)ccc3CC[C@H]21`, the Ki on D(3) dopamine receptor [1] is more than 10000 nM; at D(2) dopamine receptor, more than 1000 nM.

As for `CCCN1CCO[C@@H]2c3cc(C(=O)Nc4ccc(OC)cc4)ccc3CC[C@H]21`, the Ki was 2750 nM at D(3) dopamine receptor [1] and more than 10000 nM on D(2) dopamine receptor.
